Test results from ChEMBL document CHEMBL1134316, “Identification of dipeptidyl nitriles as potent and selective inhibitors of cathepsin B through structure-based drug design” (J Med Chem, 2001).
pIC50: −log10 of the molar value.

What follows are compounds tested against Cathepsin S (Homo sapiens, UniProt P25774) (assay: Inhibitory activity against recombinant human cathepsin S (cat S) expressed in baculovirus).
Cathepsin S, sequence (P25774 whole entry): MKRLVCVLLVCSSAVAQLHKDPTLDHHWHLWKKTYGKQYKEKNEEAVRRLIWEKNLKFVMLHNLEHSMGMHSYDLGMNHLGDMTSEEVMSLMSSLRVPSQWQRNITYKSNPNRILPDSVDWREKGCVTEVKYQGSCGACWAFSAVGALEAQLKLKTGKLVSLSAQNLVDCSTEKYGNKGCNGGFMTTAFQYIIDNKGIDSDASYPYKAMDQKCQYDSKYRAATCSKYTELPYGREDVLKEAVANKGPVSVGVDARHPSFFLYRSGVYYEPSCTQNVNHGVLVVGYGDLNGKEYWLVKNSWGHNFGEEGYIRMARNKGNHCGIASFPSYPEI

Row | Compound | pIC50
1 | N#CCNC(=O)[C@H](Cc1ccccc1)NC(=O)Cc1ccccc1 | 6.65
2 | N#CCNC(=O)[C@H](Cc1ccccc1)NC(=O)C(c1ccccc1)c1ccccc1 | 7.32

The compounds below were run against Cathepsin B (Homo sapiens, UniProt P07858) (assay: Inhibitory activity against recombinant human cathepsin B (cat B) expressed in baculovirus.).

Row | Compound | pIC50
3 | N#CCNC(=O)[C@H](Cc1cccc(C(=N)N)c1)NC(=O)C(c1ccccc1)c1ccccc1 | < 6.00
4 | N#CCNC(=O)[C@H](Cc1ccccc1)NC(=O)Cc1ccccc1 | 4.47
5 | N#CCNC(=O)[C@H](Cc1ccc(I)cc1)NC(=O)C(c1ccccc1)c1ccccc1 | < 6.00
6 | N#CCNC(=O)[C@H](Cc1cccc(I)c1)NC(=O)C(c1ccccc1)c1ccccc1 | 6.92
7 | Cc1cccc(C[C@H](NC(=O)c2ccc(Cl)cc2F)C(=O)N[C@H](C#N)COCc2ccccc2)c1 | 7.77
8 | Cc1cc(CN)cc(C[C@H](NC(=O)C(c2ccccc2)c2ccccc2)C(=O)NCC#N)c1 | 6.45
9 | N#CCNC(=O)[C@H](Cc1ccccc1)NC(=O)OCc1ccccc1 | 4.21
10 | COC(=O)c1cccc(COC[C@@H](C#N)NC(=O)[C@H](Cc2cccc(C)c2)NC(=O)C(c2ccccc2)c2ccccc2)c1 | 7.33
11 | Cc1cccc(C[C@H](NC(=O)c2ccccc2)C(=O)NCC#N)c1 | 5.72
12 | Cc1cccc(C[C@H](NC(=O)C(c2ccccc2)c2ccccc2)C(=O)N[C@H](C#N)CCOc2cccc(C(=O)O)c2)c1 | 6.86
13 | CCCCC(=O)N[C@@H](Cc1cccc(C)c1)C(=O)NCC#N | 5.52
14 | Cc1cccc(C[C@H](NC(=O)c2ccc(Cl)c(Cl)c2)C(=O)NCC#N)c1 | 7.50
15 | Cc1cccc(C[C@H](NC(=O)c2ccc(F)cc2F)C(=O)NCC#N)c1 | 6.23
16 | Cc1cccc(C[C@H](NC(=O)C(c2ccccc2)c2ccccc2)C(=O)N[C@H](C#N)COCc2ccc(C(=O)O)cc2)c1 | 7.51
17 | Cc1cccc(C[C@H](NC(=O)c2ccc(Cl)cc2F)C(=O)NCC#N)c1 | 7.14
18 | Cc1cccc(C[C@H](NC(=O)c2ccc(Cl)cc2F)C(=O)N[C@H](C#N)COCc2cccc(C(=O)O)c2)c1 | 8.70
19 | N#CCNC(=O)[C@H](Cc1cccc(Cl)c1)NC(=O)C(c1ccccc1)c1ccccc1 | 6.89
20 | Cc1cccc(C[C@H](NC(=O)C(c2ccccc2)c2ccccc2)C(=O)N[C@H](C#N)CC#Cc2cccc(C(=O)O)c2)c1 | 8.25
21 | Cc1cccc(C[C@H](NC(=O)C(c2ccccc2)c2ccccc2)C(=O)N[C@H](C#N)CCCc2cccc(C(=O)O)c2)c1 | 7.74
22 | Cc1cccc(C[C@H](NC(=O)c2ccccc2)C(=O)N[C@H](C#N)COCc2cccc(C(=O)O)c2)c1 | 8.03
23 | Cc1cccc(C[C@H](NC(=O)C(c2ccccc2)c2ccccc2)C(=O)N[C@H](C#N)COCc2cccc(CO)c2)c1 | 7.54
24 | Cc1cccc(C[C@H](NC(=O)c2ccc(F)cc2F)C(=O)N[C@H](C#N)CCCc2cccc(C(=O)O)c2)c1 | 6.96
25 | N#CCNC(=O)[C@H](Cc1ccccc1)NC(=O)C(c1ccccc1)c1ccccc1 | 6.30
26 | Cc1cc(C)cc(C[C@H](NC(=O)C(c2ccccc2)c2ccccc2)C(=O)NCC#N)c1 | 7.92
27 | CCc1cccc(C[C@H](NC(=O)C(c2ccccc2)c2ccccc2)C(=O)NCC#N)c1 | 6.87
28 | Cc1cccc(C[C@H](NC(=O)C(c2ccccc2)c2ccccc2)C(=O)N[C@H](C#N)COCc2ccccc2)c1 | 7.99
29 | CCCCC(=O)N[C@@H](Cc1cccc(C)c1)C(=O)N[C@H](C#N)COCc1cccc(C(=O)O)c1 | 7.45
30 | Cc1cncc(C[C@H](NC(=O)C(c2ccccc2)c2ccccc2)C(=O)NCC#N)c1 | 6.19
31 | Cc1cccc(C[C@H](NC(=O)c2ccc(F)cc2F)C(=O)N[C@H](C#N)COCc2ccccc2)c1 | 7.38
32 | Cc1cccc(C[C@H](NC(=O)c2ccc(Cl)cc2)C(=O)NCC#N)c1 | 6.51

The compounds below were run against Procathepsin L (Homo sapiens, UniProt P07711) (assay: Inhibitory activity against recombinant human cathepsin L (cat L) expressed in baculovirus).
Procathepsin L, sequence (P07711 whole entry): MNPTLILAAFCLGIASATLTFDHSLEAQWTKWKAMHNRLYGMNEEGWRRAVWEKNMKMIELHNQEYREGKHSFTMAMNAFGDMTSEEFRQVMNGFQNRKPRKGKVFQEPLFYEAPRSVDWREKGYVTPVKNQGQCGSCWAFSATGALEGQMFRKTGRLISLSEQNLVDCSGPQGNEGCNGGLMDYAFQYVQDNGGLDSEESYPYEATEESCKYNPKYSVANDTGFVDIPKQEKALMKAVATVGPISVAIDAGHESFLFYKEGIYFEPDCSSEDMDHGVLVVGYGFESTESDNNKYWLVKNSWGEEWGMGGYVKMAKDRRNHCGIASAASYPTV

Row | Compound | pIC50
33 | N#CCNC(=O)[C@H](Cc1ccccc1)NC(=O)Cc1ccccc1 | 6.77
34 | N#CCNC(=O)[C@H](Cc1ccccc1)NC(=O)C(c1ccccc1)c1ccccc1 | 7.51
